In US20240109912A1, “TRICYCLIC PYRIMIDINES AS CYCLIN-DEPENDENT KINASE 7 (CDK7) INHIBITORS” (JANSSEN PHARMACEUTICA NV, priority 2020, published 2024):
Values joined by “and” are separate entries in the source; they are usually repeats but may differ in a detail not shown here. Identical values can stand only once. Like-named read-outs stand apart in the source and are kept apart here.

Legend:
[1] = tested on: RNA polymerase II Serine 5 phosphorylation in A549 cells overexpressing CDK7 mutant (C312S); test: Imaging-based cellular RNA PolII Ser5 phosphorylation assay in A549 cells overexpressing CDK7-mutant (C312S); assay type: cell-based, human; settings: for CDK7_ A549 mutant hCDK7(pIC50): A549 cells overexpressing CDK7 mutant (C312S); for IC50: Homo sapiens, A549, A549 cells overexpressing CDK7 mutant (C312S), read-out: CDK7_ A549 mutant hCDK7(pIC50) (converted)
Method in brief: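 A stably transduced A549 pool overexpressing CDK7 C312S, a mutant that blocks covalent binding at Cys312, while retaining endogenous wild-type CDK7 was used. Ser5 phosphorylation was measured by imaging, and IC50 values were derived.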

[2] = biological target: CDK7/cyclinH/MAT1 trimeric complex (Homo sapiens (Human), UniProt P50613); test: In vitro CDK7 assay, potency of irreversible covalent inhibitors (kinact/KI)
[3] = tested on: RNA polymerase II Serine 5 phosphorylation (CDK7) in A549 cells
[4] = CDK7 (20 nM enz.) (KI, μM), 20 nM enz.
[5] = read-out: CDK7 (20 nM enz.) (kinact, s^−1), 20 nM enz.
[6] = read-out: CDK7 (20 nM enz.) (kinact/ KI, M^−1*s^−1), 20 nM enz.
[7] = read-out: CDK7 (20 nM enz.) (kobs/[I], M^−1*s^−1), 20 nM enz.

Sequence of CDK7/cyclinH/MAT1 trimeric complex (P50613 whole entry): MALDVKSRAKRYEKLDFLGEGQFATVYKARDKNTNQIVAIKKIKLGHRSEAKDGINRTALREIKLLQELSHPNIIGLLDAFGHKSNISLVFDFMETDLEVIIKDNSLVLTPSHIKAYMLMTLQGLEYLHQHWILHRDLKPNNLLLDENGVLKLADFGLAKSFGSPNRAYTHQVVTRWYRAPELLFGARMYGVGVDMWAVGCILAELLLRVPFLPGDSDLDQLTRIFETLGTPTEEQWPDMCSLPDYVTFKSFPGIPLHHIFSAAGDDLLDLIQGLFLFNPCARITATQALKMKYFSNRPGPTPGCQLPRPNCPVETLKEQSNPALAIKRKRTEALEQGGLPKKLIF
Sequence of CDK7/cyclinH/MAT1 trimeric complex (P51946 whole entry partner): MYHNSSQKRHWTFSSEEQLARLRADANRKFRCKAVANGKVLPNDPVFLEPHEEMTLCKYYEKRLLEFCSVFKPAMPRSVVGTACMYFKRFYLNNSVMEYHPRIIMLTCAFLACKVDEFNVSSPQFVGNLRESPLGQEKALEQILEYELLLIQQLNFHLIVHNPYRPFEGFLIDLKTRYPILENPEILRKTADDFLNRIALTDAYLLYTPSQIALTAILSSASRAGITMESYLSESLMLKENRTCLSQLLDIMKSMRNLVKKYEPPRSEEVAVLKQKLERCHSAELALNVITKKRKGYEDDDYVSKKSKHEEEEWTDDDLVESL
Sequence of CDK7/cyclinH/MAT1 trimeric complex (P51948 whole entry partner): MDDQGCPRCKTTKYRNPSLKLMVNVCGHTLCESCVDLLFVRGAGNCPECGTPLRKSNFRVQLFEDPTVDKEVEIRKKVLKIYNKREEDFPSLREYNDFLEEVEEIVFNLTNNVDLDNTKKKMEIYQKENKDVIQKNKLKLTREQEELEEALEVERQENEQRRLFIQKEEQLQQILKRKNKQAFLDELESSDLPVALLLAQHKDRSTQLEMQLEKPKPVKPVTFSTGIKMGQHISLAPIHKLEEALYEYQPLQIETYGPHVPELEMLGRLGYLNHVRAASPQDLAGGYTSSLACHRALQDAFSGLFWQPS

Structure (SMILES) | CDK7_ A549 mutant hCDK7(pIC50) [1] | IC50 [1] [µM] | melting point [°C] | CDK7 (20 nM enz.) (kinact, s^−1) ([2]; 20 nM enz.) [s⁻¹] | Ki [2, 4] | kinact [2, 5] [s⁻¹] | Ki ([2]; CDK7 (KI(μM)), Table B) | kinact/KI [2, 6] [M⁻¹ s⁻¹] | IC50 [3] [µM] | kinact ([2]; read-out: CDK7 (kinact, s^−1), Table B) [s⁻¹] | kinact/KI ([2]; read-out: CDK7 (kinact/KI, M^−1*s^−1), Table B) [M⁻¹ s⁻¹] | kinact/KI [2, 7] [M⁻¹ s⁻¹]
C=CC(=O)N1CC(N2CCC(c3cc4c(cn3)O[C@@H](C)c3c(ncnc3N3CCOCC3)N4)CC2)C1 (single isomer, unassigned) [compound 62] | <5.4 | > 3.98 | 253 | 4.79e-05 | 0.504 µM and 2.05 µM | 5.74e-05 | – | – | – | – | – | –
C=CC(=O)N1CCC(N2CC(c3cc(C)c4c(c3)Nc3ncnc(N5CCS(=O)(=O)CC5)c3[C@H](C)O4)C2)CC1 (single isomer, unassigned) [compound 100] | 5.25 and 5.24 and 5.16 | ~6.61 | 226 | – | – | – | – | – | – | – | – | –
C=CC(=O)N1CC(N2CCC(c3ccc4c(c3)Nc3ncnc(N5CCOCC5)c3CO4)CC2)C1 [compound 1] | – | > 10 | 184 | – | 0.389 µM | 9.1e-05 | 0.598 µM and 0.167 µM and 0.608 µM and 0.285 µM | 234 | – | – | – | –
C=CC(=O)N1CC(N2CC[C@H](c3cc4c(c(C)n3)OCc3c(ncnc3N3CCS(=O)(=O)CC3)N4)C2)C1 [compound 31] | – | > 10 | – | – | 0.226 µM | 5.87e-05 | – | 260 | 2.75 | – | – | –
C=CC(=O)N1CC(N2CCC(c3ccc4c(c3)Nc3ncnc(C5CCOCC5)c3CO4)CC2)C1 [compound 38] | – | > 10 | – | – | – | – | 0.251 µM | – | 1.15 | 9.7e-05 | 386 | –
C=CC(=O)N1CC(N2CCC(c3cc4c(c(C5CC5)c3)OCc3c(ncnc3N3CCOCC3)N4)CC2)C1 [compound 47] | – | > 10 | – | – | 0.175 µM | 7.35e-05 | – | 420 | 0.245 | – | – | –
C=CC(=O)N1CC(N2CCC(c3cc(C)c4c(c3)Nc3ncnc(N5CCC(S(C)(=O)=O)C5)c3CO4)CC2)C1 (stereo not drawn) [compound 65] | – | > 10 | – | – | 4.12 µM | 0.0001 | – | 24.3 | 6.46 | – | – | –
C=CC(=O)N1CC(N2CCC(c3cc(C)c4c(c3)Nc3ncnc(N5CCCC(C#N)C5)c3CO4)CC2)C1 (stereo not drawn) [compound 67] | – | > 10 | – | – | 1.2 µM | 0.000103 | – | 85.8 | 1.32 | – | – | –
C=CC(=O)N1CC(N2CCC(c3cc(C)c4c(c3)Nc3ncnc(N5CCC(C#N)CC5)c3CO4)CC2)C1 [compound 69] | – | > 10 | – | – | 1.1 µM | 6.3e-05 | – | 57.2 | 1.58 | – | – | –
C=CC(=O)N1CC(N2CCC(c3cc(C)c4c(c3)Nc3ncnc(N5CCS(=N)(=O)CC5)c3CO4)CC2)C1 [compound 72] | – | 0.832 | – | – | – | – | – | – | 0.138 | – | – | 1090
C=CC(=O)N1CCC(N2CC(c3cc(C#N)c4c(c3)Nc3ncnc(-c5cnn(C)c5)c3CO4)C2)CC1 [compound 73] | – | > 10 | – | – | 1.24 µM | 3.75e-05 | – | 30.2 | 1.66 | – | – | –
C=CC(=O)N1CC(N2CCC(c3cc(C#N)c4c(c3)Nc3ncnc(-c5cnn(C)c5)c3CO4)CC2)C1 [compound 74] | – | > 10 | – | – | 0.132 µM | 5.42e-05 | – | 412 | 1.17 | – | – | –
C=CC(=O)N1CC(N2CCC(c3cc(C)c4c(c3)Nc3ncnc(-c5ccnn5C)c3CO4)CC2)C1 [compound 80] | – | > 10 | – | – | 0.32 µM | 4.18e-05 | – | 131 | 0.219 | – | – | –
C=CC(=O)N1CC(N2CCC(c3cc(C)c4c(c3)Nc3ncnc(-c5cn(C)nc5C)c3CO4)CC2)C1 [compound 81] | – | > 10 | – | – | 0.31 µM | 4.82e-05 | – | 156 | 0.363 | – | – | –
C=CC(=O)N1CC(N2CCC(c3cc(C)c4c(c3)Nc3ncnc(-c5cncc(OCC)c5)c3CO4)CC2)C1 [compound 82] | – | > 10 | – | – | 1.28 µM | 4.27e-05 | – | 33.4 | 1.26 | – | – | –
C=CC(=O)N1CC(N2CC(c3cc(C)c4c(c3)Nc3ncnc(N5CCOCC5)c3C(C)O4)C2)C1 (stereo not drawn) [compound 103] | – | > 10 | – | – | 0.32 µM | 5.08e-05 | – | 159 | ~1.02 | – | – | –
C=CC(=O)N1CCC(N2CCC(c3cc(C)c4c(c3)Nc3ncnc(N5CCS(=N)(=O)CC5)c3CO4)CC2)C1 (stereo not drawn) [compound 104] | – | > 10 | – | – | – | – | – | – | 0.0501 | – | – | 1140
